In the NIST ThermoML archive (doi:10.1021/acs.jced.8b00212):
Numbers after ± are expanded uncertainties.

Conditions: Fluid (supercritical or subcritical phases), Brillouin light scattering

CCCCCCC [heptane]
speed of sound (513.4 K, 8000 kPa): 451.65 ± 18 m/s
speed of sound (513.58 K, 6000 kPa): 394.15 ± 14 m/s
speed of sound (513.59 K, 3000 kPa): 293.56 ± 8.7 m/s
speed of sound (513.65 K, 4000 kPa): 333.84 ± 11 m/s
speed of sound (513.92 K, 2500 kPa): 266.66 ± 7.5 m/s
speed of sound (515.23 K, 5000 kPa): 363.89 ± 12 m/s
speed of sound (515.3 K, 10000 kPa): 481.16 ± 20 m/s
speed of sound (521.41 K, 5000 kPa): 337.01 ± 11 m/s
speed of sound (523.19 K, 10000 kPa): 459.31 ± 19 m/s
speed of sound (523.83 K, 3000 kPa): 242.56 ± 6.7 m/s
speed of sound (524.25 K, 4000 kPa): 291.43 ± 8.7 m/s
speed of sound (524.62 K, 6000 kPa): 357.73 ± 12 m/s
speed of sound (524.62 K, 8000 kPa): 417.84 ± 16 m/s
speed of sound (525.23 K, 2500 kPa): 196.31 ± 5.5 m/s
speed of sound (528.41 K, 3000 kPa): 218.56 ± 5.8 m/s
speed of sound (528.9 K, 4000 kPa): 269.01 ± 7.6 m/s
speed of sound (528.93 K, 2500 kPa): 167.01 ± 5 m/s
speed of sound (528.95 K, 8000 kPa): 403.55 ± 15 m/s
speed of sound (529.1 K, 6000 kPa): 344.17 ± 11 m/s
speed of sound (532.76 K, 3000 kPa): 193.81 ± 5.4 m/s
speed of sound (533.4 K, 10000 kPa): 437.12 ± 17 m/s
speed of sound (533.55 K, 4000 kPa): 252.16 ± 6.9 m/s
speed of sound (533.57 K, 8000 kPa): 391.25 ± 14 m/s
speed of sound (533.77 K, 6000 kPa): 331.99 ± 10 m/s
speed of sound (534.12 K, 2500 kPa): 121.38 ± 4.8 m/s
speed of sound (534.45 K, 5000 kPa): 293.97 ± 8.7 m/s
speed of sound (537.58 K, 4000 kPa): 231.06 ± 6.4 m/s
speed of sound (538.13 K, 2500 kPa): 101.28 ± 3.8 m/s
speed of sound (538.36 K, 3000 kPa): 152.7 ± 4.5 m/s
speed of sound (538.84 K, 8000 kPa): 376.34 ± 13 m/s
speed of sound (539.09 K, 6000 kPa): 316.72 ± 9.6 m/s
speed of sound (541.47 K, 4000 kPa): 208.26 ± 5.3 m/s
speed of sound (542.55 K, 8000 kPa): 364.39 ± 12 m/s
speed of sound (543.16 K, 10000 kPa): 413.25 ± 15 m/s
speed of sound (543.5 K, 5000 kPa): 262.34 ± 7.4 m/s
speed of sound (543.6 K, 6000 kPa): 300.59 ± 8.8 m/s
speed of sound (544.09 K, 2500 kPa): 100.71 ± 2.2 m/s
speed of sound (544.95 K, 3000 kPa): 115.6 ± 3.4 m/s
speed of sound (547.02 K, 2500 kPa): 107.6 ± 2.3 m/s
speed of sound (548.66 K, 8000 kPa): 346.4 ± 11 m/s
speed of sound (548.98 K, 6000 kPa): 283.97 ± 8.1 m/s
speed of sound (549.04 K, 3000 kPa): 105.27 ± 2.9 m/s
speed of sound (549.16 K, 4000 kPa): 178.39 ± 4.8 m/s
speed of sound (552.59 K, 2500 kPa): 118.66 ± 2.5 m/s
speed of sound (553.05 K, 6000 kPa): 270.32 ± 7.5 m/s
speed of sound (553.19 K, 8000 kPa): 335.76 ± 11 m/s
speed of sound (553.2 K, 10000 kPa): 388.87 ± 14 m/s
speed of sound (553.42 K, 5000 kPa): 225.17 ± 5.8 m/s
speed of sound (553.43 K, 4000 kPa): 160.12 ± 4 m/s
speed of sound (553.93 K, 3000 kPa): 110.64 ± 2.6 m/s
speed of sound (557.81 K, 8000 kPa): 325.48 ± 10 m/s
speed of sound (557.86 K, 6000 kPa): 255.8 ± 6.9 m/s
speed of sound (559.74 K, 3000 kPa): 116.03 ± 2.4 m/s
speed of sound (559.91 K, 2500 kPa): 129.19 ± 2.8 m/s
speed of sound (560.41 K, 4000 kPa): 132.63 ± 2.9 m/s
speed of sound (563.03 K, 10000 kPa): 363.89 ± 12 m/s
speed of sound (563.09 K, 3000 kPa): 119.84 ± 2.5 m/s
speed of sound (563.58 K, 8000 kPa): 312.82 ± 9.5 m/s
speed of sound (563.84 K, 6000 kPa): 236.54 ± 6.2 m/s
speed of sound (563.94 K, 4000 kPa): 124.51 ± 2.9 m/s
speed of sound (564.02 K, 2500 kPa): 135.46 ± 3 m/s
speed of sound (565.65 K, 5000 kPa): 187.87 ± 4.7 m/s
speed of sound (572.57 K, 2500 kPa): 144.47 ± 3.2 m/s
speed of sound (573.39 K, 10000 kPa): 345.21 ± 11 m/s
speed of sound (574.33 K, 3000 kPa): 134.46 ± 3 m/s
speed of sound (574.41 K, 8000 kPa): 287.41 ± 8.2 m/s
speed of sound (574.85 K, 6000 kPa): 211.93 ± 5.4 m/s
speed of sound (574.87 K, 5000 kPa): 160.49 ± 3.9 m/s
speed of sound (575.28 K, 4000 kPa): 113.58 ± 2.4 m/s
speed of sound (577.04 K, 5000 kPa): 154.18 ± 3.8 m/s
speed of sound (579.18 K, 10000 kPa): 331.94 ± 10 m/s
speed of sound (582.31 K, 5000 kPa): 142.67 ± 3.3 m/s
speed of sound (582.39 K, 3000 kPa): 142.99 ± 3.1 m/s
speed of sound (582.86 K, 10000 kPa): 325.02 ± 10 m/s
speed of sound (583.1 K, 8000 kPa): 270.69 ± 7.5 m/s
speed of sound (583.18 K, 6000 kPa): 191.45 ± 4.8 m/s
speed of sound (584.19 K, 2500 kPa): 156.26 ± 3.5 m/s
speed of sound (584.6 K, 4000 kPa): 122.55 ± 2.5 m/s
speed of sound (587.85 K, 10000 kPa): 315.79 ± 9.6 m/s
speed of sound (588.17 K, 5000 kPa): 139.88 ± 3.2 m/s
speed of sound (590.48 K, 2500 kPa): 161.58 ± 3.6 m/s
speed of sound (591.62 K, 4000 kPa): 127.84 ± 2.6 m/s
speed of sound (591.77 K, 3000 kPa): 152.87 ± 3.5 m/s
speed of sound (592.28 K, 5000 kPa): 136.41 ± 3 m/s
speed of sound (592.57 K, 6000 kPa): 176.14 ± 4.2 m/s
speed of sound (592.71 K, 10000 kPa): 307.49 ± 9.3 m/s
speed of sound (593.19 K, 8000 kPa): 249.19 ± 6.7 m/s
speed of sound (597.48 K, 5000 kPa): 135.43 ± 3.2 m/s
speed of sound (601.6 K, 2500 kPa): 170.4 ± 3.8 m/s
speed of sound (602.3 K, 5000 kPa): 135.26 ± 2.9 m/s
speed of sound (602.84 K, 3000 kPa): 161.38 ± 3.6 m/s
speed of sound (603.51 K, 10000 kPa): 291.2 ± 8.6 m/s
speed of sound (603.68 K, 4000 kPa): 143.88 ± 3.1 m/s
speed of sound (604.1 K, 6000 kPa): 161.83 ± 3.7 m/s
speed of sound (604.67 K, 8000 kPa): 226 ± 5.8 m/s
speed of sound (607.65 K, 5000 kPa): 136.72 ± 3.1 m/s
speed of sound (612.08 K, 4000 kPa): 149.82 ± 3.2 m/s
speed of sound (612.37 K, 3000 kPa): 167.57 ± 3.7 m/s
speed of sound (612.58 K, 2500 kPa): 179.23 ± 4.1 m/s
speed of sound (613.73 K, 6000 kPa): 158.49 ± 3.6 m/s
speed of sound (613.93 K, 8000 kPa): 218.01 ± 5.4 m/s
speed of sound (614.03 K, 10000 kPa): 272.94 ± 7.5 m/s
speed of sound (615.11 K, 5000 kPa): 142.58 ± 3.1 m/s
speed of sound (620.2 K, 8000 kPa): 211.6 ± 5.3 m/s
speed of sound (620.87 K, 2500 kPa): 183.77 ± 4.2 m/s
speed of sound (621.22 K, 4000 kPa): 157.32 ± 3.5 m/s
speed of sound (622.48 K, 6000 kPa): 158.77 ± 3.6 m/s
speed of sound (623.13 K, 10000 kPa): 260.67 ± 7.2 m/s
speed of sound (623.25 K, 5000 kPa): 150.58 ± 3.2 m/s
speed of sound (623.42 K, 3000 kPa): 174.58 ± 4 m/s
speed of sound (631.85 K, 4000 kPa): 163.15 ± 3.6 m/s
speed of sound (632.04 K, 3000 kPa): 179.96 ± 4.1 m/s
speed of sound (632.18 K, 2500 kPa): 189.44 ± 4.3 m/s
speed of sound (632.29 K, 5000 kPa): 156.55 ± 3.4 m/s
speed of sound (632.41 K, 6000 kPa): 159.42 ± 3.5 m/s
speed of sound (632.86 K, 8000 kPa): 201.03 ± 4.8 m/s
speed of sound (640.72 K, 2500 kPa): 192.85 ± 4.6 m/s
speed of sound (641.53 K, 3000 kPa): 186.21 ± 4.2 m/s
speed of sound (641.95 K, 4000 kPa): 173.32 ± 4 m/s
speed of sound (642.59 K, 8000 kPa): 195.65 ± 4.6 m/s
speed of sound (643.04 K, 6000 kPa): 164.74 ± 3.6 m/s
speed of sound (643.51 K, 5000 kPa): 165.41 ± 3.6 m/s
speed of sound (650.07 K, 2500 kPa): 195.77 ± 4.6 m/s
speed of sound (650.9 K, 3000 kPa): 189.41 ± 4.3 m/s
